Test results: patent US4001223A, “Adamantane-piperazine derivatives” (Idemitsu Kosan Co., Ltd., priority 1975, dated 1977)
Entries after “also recorded” stand apart in the source; their conditions may differ.

Assays:
Hypotensive action = assay type: in vivo; details: for dose showing hypotensive action: in vivo
[1] = Effect on cerebral blood flow in cats; assay type: in vivo; details: cats weighing about 3 kg
Excerpt: (§1) The action on cerebral blood flow and muscular blood flow was examined with cats weighing about 3 kg.

[2] = Effect on muscular blood flow in cats; assay type: in vivo; details: cats weighing about 3 kg
Excerpt: as §1

[3] = system: Vessels excised from guinea-pigs; assay: Inhibition of adrenalin-induced contraction of isolated smooth muscle (vessels excised from guinea-pigs); details: contracting substance Adrenalin 2.86×10^-6 g/ml; effective concentration 1×10^-5 g/ml
[4] = system: Small intestine excised from guinea-pigs; assay: Inhibition of histamine-induced contraction of isolated smooth muscle (small intestine excised from guinea-pigs); details: contracting substance Histamine 1.00×10^-7 g/ml; effective concentration 1×10^-4 g/ml
[5] = system: Small intestine excised from guinea-pigs; assay: Inhibition of BaCl2-induced contraction of isolated smooth muscle (small intestine excised from guinea-pigs); details: contracting substance BaCl2 2.00×10^-3 g/ml; effective concentration 1×10^-4 g/ml
[6] = system: Small intestine excised from guinea-pigs; assay: Inhibition of acetylcholine-induced contraction of isolated smooth muscle (small intestine excised from guinea-pigs); details: contracting substance Acethylcholine 5.43×10^-4 g/ml; effective concentration 8.75×10^-6 g/ml
isolated smooth muscle = assay: Effect on contraction of isolated smooth muscle, overall; parameters: species or system guinea-pigs
in vivo = details: for LD50: mouse, in vivo
[7] = Solubility in aqueous solution of tartaric acid (aptitude test as an injection); assay type: physicochemical; details: 0.25 weight percent
Procedure: For the purpose of examining the solubility of the new compound N-(1-adamantyl methyl)-N'-cinnamyl piperazine in an aqueous solution of tartaric acid, the aqueous solutions in which 2, 4, 6 and 8 times molar of tartaric acid based on 1 mol of the new compound were contained were prepared and the compound was added so that its concentration should be 0.25 weight percent to each aqueous solution. Each aqueous solution was heated to 80° C and allowed to cool to a room temperature (about 20° C), then the solubility was evaluated. […] In addition, the pH value of 0.25 weight percent aqueous solution of the compound prepared by using 2 times mol of tartaric acid based on 1 molar of the compound was 3.10 and when an alkali was added to the aqueous solution, crystals began to separate at pH 3.80.

[8] = Stability in aqueous solution of tartaric acid; assay type: physicochemical
Procedure: After heating a 0.25 weight percent aqueous solution of the new compound N-(1-adamantyl methyl)-N'-cinnamyl piperazine prepared by using 2 times mol of tartaric acid based on 1 mol of this compound, the solution was allowed to cool to a room temperature (about 20° C). Then, the pH value was adjusted to 8-9 with 1/10 N aqueous solution of sodium hydroxide.

[9] = 0.25 weight percent, 2 times mol tartaric acid, heated, cooled, pH adjusted to 8-9, room temperature for 7 days

With C(=C\c1ccccc1)/CN1CCN(C(c2ccccc2)c2ccccc2)CC1 [Cinnarizine, reference compound] the “dose showing hypotensive action” value (Hypotensive action) was 0.5 mg/kg.
In the case of C(=C\c1ccccc1)/CN1CCN(CC23CC4CC(CC(C4)C2)C3)CC1 [N-(1-adamantylmethyl)-N'-cinnamyl piperazine], the “blood flow of cerebral cortex” value ([1]; 1 mg/kg) is reported as “clearly increased blood flow of cerebral cortex”, the “action on blood flow of cerebral cortex compared with Cinnarizine” value ([1]; versus Cinnarizine 1 mg/kg) is reported as “more significant than that induced by Cinnarizine” and the “blood flow of gastrocnemius muscle” value [2] is reported as “clearly increased blood flow of gastrocnemius muscle”. The “action on blood flow of gastrocnemius muscle compared with Cinnarizine” value ([2]; versus Cinnarizine) was “more significant than that of Cinnarizine”, the “side effects such as an excessive hypotension” value (Hypotensive action; general statement) was “little side effects such as an excessive hypotension” and the “dose showing hypotensive action” value (Hypotensive action) was over 5 mg/kg. The “hypotensive action compared with Cinnarizine” value (Hypotensive action; versus Cinnarizine) was “clearly weaker than that of Cinnarizine”, the Inhibitory rate [3] was 3.10% and the Inhibitory rate [4] was 95.0%. The Inhibitory rate [5] was 77.23%, the Inhibitory rate [6] was 25.0% and the “smooth muscle relaxing action” value (isolated smooth muscle) was “recognized to possess smooth muscle relaxing action”. For the same molecule, the toxicity (in vivo; general statement) was “low toxicity; also recorded: very low toxicity compared with conventional cerebral vasodilators”, the LD50 (in vivo; iv) was 78.8 mg/kg and the LD50 (in vivo; po) was over 10000 mg/kg. The “pH value of aqueous solution” value ([7]; 2 times mol of tartaric acid) was 3.10, the “pH at which crystals began to separate” value ([7]; 2 times mol of tartaric acid, alkali added) was 3.80 and the solubility ([7]; aqueous tartaric acid, 2, 4, 6 and 8 times molar, heated to 80° C, cooled to about 20° C) was “soluble in all of the above aqueous solutions of tartaric acid”. The “change in infrared absorption spectrum and nuclear magnetic resonance spectrum” value [8, 9] was “No change”, the “stability by thin layer chromatography” value [8, 9] was “unaffected” and the “stability against heat, alkali and acid” value ([8]; general statement) was “good stability against heat, alkali and acid; also recorded: high stability against heat, alkali and acid”. The “stability in an aqueous solution of tartaric acid” value ([8]; overall conclusion) was “exist stably in an aqueous solution of tartaric acid”.
